Paper PMC6356649, “Effect of Pentacyclic Guanidine Alkaloids from the Sponge Monanchora pulchra on Activity of α-Glycosidases from Marine Bacteria” (Marine Drugs, 2019)

Columns and labels:
[1] = target: T1, α-PsGal (recombinant wild-type α-D-galactosidase, GH36) (Pseudoalteromonas sp. KMM 701, UniProt Q19AX0); experiment: p-nitrophenol release at […] nm; type: biochemical; conditions: 0.05 M sodium phosphate, pH 7.0, 20 °C; Km only implied (3.32 mM stated as ~5 Km)
T1 construct: recombinant from pET-40b(+) in E. coli Rosetta (DE3); two identical subunits; catalytic Asp451 and Asp516
T1 sequence (Q19AX0 1-710): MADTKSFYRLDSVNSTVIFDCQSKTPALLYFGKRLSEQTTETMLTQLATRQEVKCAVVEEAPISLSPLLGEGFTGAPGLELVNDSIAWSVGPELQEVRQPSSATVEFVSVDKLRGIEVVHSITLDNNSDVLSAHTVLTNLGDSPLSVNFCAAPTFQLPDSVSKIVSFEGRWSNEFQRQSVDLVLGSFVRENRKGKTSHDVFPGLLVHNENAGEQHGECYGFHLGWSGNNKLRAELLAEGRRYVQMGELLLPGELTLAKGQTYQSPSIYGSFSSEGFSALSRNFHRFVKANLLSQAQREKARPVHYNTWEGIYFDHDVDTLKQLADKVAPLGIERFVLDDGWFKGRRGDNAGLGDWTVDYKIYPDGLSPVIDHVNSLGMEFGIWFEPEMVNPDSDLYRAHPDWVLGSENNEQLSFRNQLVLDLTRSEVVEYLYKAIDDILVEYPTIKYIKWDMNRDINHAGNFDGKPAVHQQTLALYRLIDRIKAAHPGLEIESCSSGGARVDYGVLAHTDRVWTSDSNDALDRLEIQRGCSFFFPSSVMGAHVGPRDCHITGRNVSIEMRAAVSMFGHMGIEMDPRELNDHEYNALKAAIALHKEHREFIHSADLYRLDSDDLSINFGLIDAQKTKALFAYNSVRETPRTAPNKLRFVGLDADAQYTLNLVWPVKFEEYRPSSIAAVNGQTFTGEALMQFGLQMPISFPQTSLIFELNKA

[2] = target: T1, α-PsGal (recombinant wild-type α-D-galactosidase, GH36); experiment: inhibition of pNP-α-Gal hydrolysis; type: biochemical; conditions: competitive; reaction product; active site; pH 7.0, 20 °C; read-out: decreased the activity on 50%

IC50 [2] [µM] | SMILES | p-nitrophenol release at 400 nm [1]
 | O=[N+]([O-])c1ccc(O[C@H]2O[C@H](CO)[C@H](O)[C@H](O)[C@H]2O)cc1 [4-nitrophenyl-α-D-galactopyranoside] | p-nithrophenil galactopyranoside (pNP-α-Gal) for α-PsGal
700 | OC[C@H]1OC(O)[C@H](O)[C@@H](O)[C@H]1O (stereo partly drawn) [D-galactose] | 
